Measurements as given in paper PMC7594953 (Acta Pharmacologica Sinica, 2020).
Entries after “also recorded” stand apart in the source; their conditions may differ.

Legend:
SARS-CoV-2 (WIV04) = format: cell-based
SARS2-S pseudovirus [1] = assay: microbe, parasite or virus in culture; conditions: Huh-7, 48 h; for EC90: read-out: SARS2-S pseudovirus EC90; for EC50: read-out: SARS2-S pseudovirus EC50
SARS-CoV S pseudovirus = assay: microbe, parasite or virus in culture; format: cell-based; conditions: Severe acute respiratory syndrome coronavirus; for EC90: Huh-7, read-out: SARS-CoV S pseudovirus EC90; for EC50: Huh-7, read-out: SARS-CoV S pseudovirus EC50
SARS2-S pseudovirus [2] = assay: in vitro; conditions: human
VSV-G pseudovirus = assay: microbe, parasite or virus in culture; format: cell-based; conditions: Huh-7, read-out: VSV-G pseudovirus EC50
in vitro = conditions: human
SARS2-S pseudovirus [3] = conditions: Huh-7 cells, screening at 20 µM
COVID-19 = conditions: critically ill patients; cited from earlier work
[4] = Huh-7 CC50, Table 2, mean ± SEM from two independent experiments

| SMILES | Activity against native SARS-CoV-2 replication (in words) (SARS-CoV-2 (WIV04)) | EC90 (SARS2-S pseudovirus [1]) [µM] | EC90 (SARS-CoV S pseudovirus) [µM] | selectivity ratio (SARS2-S pseudovirus [2]) | EC50 (SARS2-S pseudovirus [1]) [µM] | EC50 (SARS-CoV S pseudovirus) [µM] | EC50 (VSV-G pseudovirus) [µM] | CC50 (in vitro; [4]) [µM] | CC50 (in vitro; Huh7 CC50) [µM] | Activity in SARS2-S pseudovirus screening (in words) (SARS2-S pseudovirus [3]) | Improvement of oxygen support (COVID-19) [%] |
| --- | --- | --- | --- | --- | --- | --- | --- | --- | --- | --- | --- |
| CCCCc1oc2ccccc2c1C(=O)c1cc(I)c(OCCN(CC)CC)c(I)c1 [Amiodarone] | significantly inhibited SARS2 replication | 19.4 | > 20 |  |  |  |  |  |  |  |  |
| CN1CCCC(n2nc(Cc3ccc(Cl)cc3)c3ccccc3c2=O)CC1 (stereo not drawn) [Azelastine] | significantly inhibited SARS2 replication | 5.63 | > 20 | > 11.3 | 1.81 | 2.36 ± 1.57 | > 20 | > 20 |  |  |  |
| COc1cc(Nc2c(C#N)cnc3cc(OCCCN4CCN(C)CC4)c(OC)cc23)c(Cl)cc1Cl [Bosutinib] | significantly inhibited SARS2 replication | 1.56 | 3.15 ± 0.01 | 13.6 | 1.3 | 1.04 ± 0.05 | 5.07 | 13.6 ± 2.16 |  |  |  |
| CN(C)CC/C=C1/c2ccccc2Sc2ccc(Cl)cc21 [Chlorprothixene] | failed to show activity; also recorded: no anti-SARS-CoV-2 activity | 23.8 |  | > 11.9 | 2.15 |  | > 20 |  |  |  |  |
| CN(C)[C@@H](CCOc1cccc2ccccc12)c1ccccc1 [Dapoxetine] |  | 18 |  | 13.1 | 1.19 |  | 18.9 |  |  |  |  |
| OCCN1CCN(CCC=C2c3ccccc3Sc3ccc(C(F)(F)F)cc32)CC1 [Flupenthixol] | significantly inhibited SARS2 replication | 8.68 | 10.8 ± 1.05 | 11.7 | 1.45 | 1.39 ± 0.35 | 17.9 | 14.7 ± 3.28 |  |  |  |
| COc1cc2ncnc(Nc3ccc(F)c(Cl)c3)c2cc1OCCCN1CCOCC1 [Gefitinib] |  | 20.3 |  |  |  |  |  |  |  |  |  |
| CNCCC=C1c2ccccc2CCc2ccccc21 [Nortriptyline] | failed to show activity | 5.26 |  | 14.5 | 1.06 |  | 17.2 |  | 16.8 |  |  |
| OCCN1CCN(CCCN2c3ccccc3Sc3ccc(Cl)cc32)CC1 [Perphenazine] | failed to show activity | > 20 |  | 14.7 | 2.14 |  | > 20 |  |  |  |  |
| CC(CN1c2ccccc2Sc2ccccc21)N(C)C (stereo not drawn) [Promethazine] | failed to show activity | 18.2 |  | > 20.8 | 0.96 |  | > 20 |  |  |  |  |
| CNCCCC1c2ccccc2C=Cc2ccccc21 [Protriptyline] |  | 7.21 |  | > 13.5 | 1.68 |  | > 20 |  | > 20 |  |  |
| O=C(O[C@H]1CN2CCC1CC2)N1CCc2ccccc2[C@@H]1c1ccccc1 [Solifenacin] |  | 8.98 |  | > 9.66 | 2.03 |  | > 20 |  |  |  |  |
| CN(C)CCOc1ccc(/C(=C(/CCCl)c2ccccc2)c2ccccc2)cc1 [Toremifene] | significantly inhibited SARS2 replication | 13 | > 20 | 8.92 | 1.92 | 2.28 ± 1.09 | 17.7 | > 20 |  |  |  |
| CC(CN(C)C)CN1c2ccccc2Sc2ccccc21 (stereo not drawn) [Trimeprazine] | significantly inhibited SARS2 replication | 3.77 | 4.3 ± 0.48 | 14.2 | 0.97 | 0.66 ± 0.45 | 5.87 | 16.7 ± 1.89 |  |  |  |
| CN(C)CCCN1c2ccccc2Sc2ccc(Cl)cc21 [chlorpromazine] |  |  |  |  |  |  |  |  |  | limited toxicity/activity window |  |
| Cc1ccc(NC(=O)c2ccc(CN3CCN(C)CC3)cc2)cc1Nc1nccc(-c2cccnc2)n1 [imatinib] |  |  |  |  |  |  |  |  |  | weak activity |  |
| CCC(CC)COC(=O)[C@H](C)N[P@](=O)(OC[C@H]1O[C@@](C#N)(c2ccc3c(N)ncnn23)[C@H](O)[C@@H]1O)Oc1ccccc1 [remdesivir] |  |  |  |  |  |  |  |  |  |  | 68 |
